Data as given in ChEMBL document CHEMBL3808389, “Stable and biocompatible cystine knot peptides from the marine sponge Asteropus sp” (Bioorg Med Chem, 2016).
Where a SMILES comes first, the peptide text is derived from it. Bridges are numbered along the chain shown (N, C = ends). [ ]: non-standard residue; d: D form. ξ: configuration not given here. ξpGlu = O=C1CCC(C(=O)O)N1

What was measured:
[1] = Toxicity in Thamnaconus modestus RBC assessed as hemolytic activity at 0.08 to 50 uM measured after 1 hr by spectrophotometric analysis; type: cell-based; conditions: erythrocyte
[2] = Thermal stability in Tris-acetate-EDTA buffer of pH 8.3 at 100 degC measured upto 12 hrs by reverse-phase HPLC analysis; type: physicochemical; conditions: pH 8.3, 12 h
RAW264.7 [3] = assay: Cytotoxicity against mouse RAW264.7 cells assessed as cell viability at 10 or 40 ug/ml measured after 24 hrs by WST assay; type: cell-based; conditions: raw264.7, 24 h
[4] = Toxicity in human RBC assessed as hemolytic activity at 50 uM measured after 1 hr by spectrophotometric analysis; type: cell-based, Erythrocyte; conditions: for Activity: erythrocyte, 1 h, 50 µM
RAW264.7 [5] = assay: Toxicity in mouse RAW264.7 cells assessed as in induction of Nitric oxide production at 10 or 40 ug/ml measured after 24 hrs by Griess reaction method; type: cell-based; conditions: raw264.7, 24 h
Plasma = assay: Metabolic stability in human plasma at 37 degC measured upto 12 hrs by reverse-phase HPLC analysis; type: ADME, cell-free
[6] = Thermal stability of the compound in phosphate buffer of pH 7.4 at 50 ug at 100 degC assessed as conformation changes by measuring changes in short wavelength region (195 nanometer) by CD analysis; type: physicochemical
[7] = Chemical stability assessed as chymotrypsin (unknown origin)-mediated degradation in simulated human intestinal fluid at 37 degC measured up to 12 hrs by reverse-phase HPLC analysis; type: ADME, physicochemical; conditions: simulated gi fluid
[8] = Chemical stability assessed as pepsin (unknown origin)-mediated degradation in simulated human intestinal fluid at 37 degC measured up to 12 hrs by reverse-phase HPLC analysis; type: ADME, physicochemical; conditions: simulated gi fluid
[9] = Chemical stability assessed as elastase (unknown origin)-mediated degradation in simulated human intestinal fluid at 37 degC measured up to 12 hrs by reverse-phase HPLC analysis; type: ADME, physicochemical; conditions: simulated gi fluid
[10] = Chemical stability assessed as trypsin (unknown origin)-mediated degradation in simulated human intestinal fluid at 37 degC measured up to 12 hrs by reverse-phase HPLC analysis; type: ADME, physicochemical; conditions: simulated gi fluid
[11] = Thermal stability of the compound in phosphate buffer of pH 7.4 at 50 ug at 25 degC by CD analysis; type: physicochemical
[12] = Cytotoxicity against rat Ac2F cells at 30 uM; type: cell-based

For CC[C@H](C)[C@H](NC(=O)[C@@H](NC(=O)[C@H](Cc1ccc(O)cc1)NC(=O)[C@@H]1CSSC[C@@H]2NC(=O)[C@@H]3CCCN3C(=O)[C@H](CC(N)=O)NC(=O)[C@H](Cc3ccccc3)NC(=O)[C@H](CCC(=O)O)NC(=O)[C@H](C(C)C)NC(=O)[C@H](CC(=O)O)NC(=O)[C@@H]3CSSC[C@H](NC(=O)[C@H]([C@H](C)O)NC(=O)[C@H](CC(C)C)NC(=O)[C@@H]4CCCN4C(=O)[C@@H]4CCCN4C(=O)[C@H](CSSC[C@H](N)C(=O)N4CCC[C@H]4C(=O)NCC(=O)N[C@@H](CCC(=O)O)C(=O)NCC(=O)N[C@@H](CCC(=O)O)C(=O)N[C@@H](CCC(N)=O)C(=O)N3)NC2=O)C(=O)N[C@@H]([C@@H](C)CC)C(=O)N2CCC[C@H]2C(=O)NCC(=O)N[C@@H](CC(=O)O)C(=O)N2CCC[C@H]2C(=O)N[C@@H](Cc2ccc(O)cc2)C(=O)NCC(=O)N[C@@H]([C@@H](C)CC)C(=O)N1)[C@@H](C)CC)C(=O)O, the Activity [1] was “Non-toxic”, the Stability [2] was “Stable” and the Activity (RAW264.7 [3]) was “Non-toxic”. The Activity [4] was “Non-toxic” and the Activity (RAW264.7 [5]) was “Non-toxic”.
In the case of CC[C@H](C)[C@@H]1NC(=O)[C@H](CC(C)C)NC(=O)CNC(=O)[C@H](CC(=O)O)NC(=O)[C@@H]2CSSC[C@H](NC(=O)[C@H](Cc3c[nH]c4ccccc34)NC(=O)C3CCC(=O)N3)C(=O)N[C@@H](C)C(=O)N[C@@H](CCC(=O)O)C(=O)N[C@@H](CCC(=O)O)C(=O)NCC(=O)N[C@@H](CCC(=O)O)C(=O)N[C@@H](CO)C(=O)N[C@H]3CSSC[C@H](NC1=O)C(=O)N[C@@H](Cc1ccc(O)cc1)C(=O)N1CCC[C@H]1C(=O)N[C@@H]([C@@H](C)O)C(=O)N[C@@H](Cc1ccccc1)C(=O)N1CCC[C@H]1C(=O)N[C@@H](CCC(=O)O)C(=O)N1CCC[C@H]1C(=O)N[C@@H]([C@@H](C)CC)C(=O)N[C@H](C(=O)NCC(=O)N[C@H](C(=O)O)C(C)C)CSSC[C@H](NC(=O)[C@@H]1CCCN1C(=O)[C@H](Cc1ccc(O)cc1)NC(=O)[C@H](C(C)C)NC(=O)[C@H](CCC(=O)O)NC3=O)C(=O)N2 (stereo not given in full) ([ξpGlu]WCAEEGESCEVYPCCDGLICYPTFPEPICGV-OH; disulfide 3-16, 10-21, 15-30), the Stability (Plasma) is reported as “Stable”, the Stability [6] is reported as “Unstable” and the Stability [7] is reported as “Stable”. The Stability [8] was “Stable”, the Stability [9] was “Stable” and the Activity [1] was “Non-toxic”. The Stability [10] was “Stable”, the Activity [4] was “Non-toxic” and the Stability [11] was “Stable”.
For CC[C@H](C)[C@@H]1NC(=O)[C@@H]2CSSC[C@@H]3NC(=O)[C@H](CO)NC(=O)[C@H](CCC(=O)O)NC(=O)CNC(=O)[C@H](CCC(=O)O)NC(=O)[C@H](Cc4ccccc4)NC(=O)[C@H](C)NC(=O)[C@@H](NC(=O)CNC(=O)C4CCC(=O)N4)CSSC[C@H](NC(=O)[C@H](CSSC[C@@H](C(=O)N[C@@H](Cc4ccc(O)cc4)C(=O)N[C@@H](Cc4ccc(O)cc4)C(=O)N[C@@H](CC(C)C)C(=O)O)NC(=O)[C@H]([C@@H](C)O)NC(=O)CNC(=O)[C@H](CC(=O)O)NC(=O)[C@@H]4CCCN4C(=O)[C@H](CC(N)=O)NC(=O)CNC(=O)[C@@H]4CCCN4C1=O)NC(=O)[C@@H]1CCCN1C(=O)[C@H](Cc1ccc(O)cc1)NC(=O)[C@H](Cc1ccccc1)NC(=O)[C@H](CCC(=O)O)NC(=O)[C@H](C(C)C)NC(=O)[C@H](CC(N)=O)NC3=O)C(=O)N1CCC[C@H]1C(=O)NCC(=O)N[C@@H](CC(C)C)C(=O)NCC(=O)N[C@@H](CC(C)C)C(=O)N[C@@H]([C@@H](C)O)C(=O)N2 (stereo not given in full) ([ξpGlu]GCAFEGESCNVEFYPCCPGLGLTCIPGNPDGTCYYL-OH; disulfide 3-18, 10-25, 17-34), the Activity [1] was “Non-toxic” and the Activity [4] was “Non-toxic”.
In the case of CC[C@H](C)[C@H](NC(=O)[C@@H](NC(=O)[C@H](Cc1ccc(O)cc1)NC(=O)[C@@H]1CSSC[C@@H]2NC(=O)[C@@H]3CCCN3C(=O)[C@H](CC(N)=O)NC(=O)[C@H](Cc3ccccc3)NC(=O)[C@H](CCC(=O)O)NC(=O)[C@H](C(C)C)NC(=O)[C@H](CC(=O)O)NC(=O)[C@@H]3CSSC[C@H](NC(=O)[C@H]([C@@H](C)O)NC(=O)[C@H](CC(C)C)NC(=O)[C@@H]4CCCN4C(=O)[C@@H]4CCCN4C(=O)[C@H](CSSC[C@H](N)C(=O)N4CCC[C@H]4C(=O)NCC(=O)N[C@@H](CCC(=O)O)C(=O)NCC(=O)N[C@@H](CCC(=O)O)C(=O)N[C@@H](CCC(=O)O)C(=O)N3)NC2=O)C(=O)N[C@@H]([C@@H](C)CC)C(=O)N2CCC[C@H]2C(=O)NCC(=O)N[C@@H](CC(=O)O)C(=O)N2CCC[C@H]2C(=O)N[C@@H](Cc2ccc(O)cc2)C(=O)NCC(=O)N[C@@H]([C@@H](C)CC)C(=O)N1)[C@@H](C)CC)C(=O)O (H-CPGEGEECDVEFNPCCPPLTCIPGDPYGICYII-OH; disulfide 1-16, 8-21, 15-30), the Stability (Plasma) is reported as “Stable”, the Stability [6] is reported as “Unstable” and the Stability [7] is reported as “Stable”. The Stability [8] was “Stable”, the Activity [12] was “Non-toxic” and the Stability [9] was “Stable”. For the same molecule, the Activity [1] was “Non-toxic”, the Stability [2] was “Stable” and the Activity (RAW264.7 [3]) was “Non-toxic”. The Stability [10] was “Stable”, the Activity [4] was “Non-toxic” and the Activity (RAW264.7 [5]) was “Non-toxic”. For the same molecule, the Stability [11] was “Stable”.
With CC[C@H](C)[C@@H]1NC(=O)CNC(=O)CNC(=O)[C@@H]2CCCN2C(=O)[C@H](CC(=O)O)NC(=O)CNC(=O)[C@@H]2CCCN2C(=O)[C@H](Cc2ccc(O)cc2)NC(=O)[C@@H]2CSSC[C@@H]3NC(=O)[C@H](CCC(=O)O)NC(=O)[C@H](CCC(=O)O)NC(=O)CNC(=O)[C@@H]4CCCN4C(=O)CNC(=O)[C@H](C)NC(=O)[C@@H](NC(=O)CNC(=O)C4CCC(=O)N4)CSSC[C@H](NC(=O)[C@H](CSSC[C@@H](C(=O)N[C@@H](Cc4ccc(O)cc4)C(=O)O)NC1=O)NC(=O)[C@H](CC(=O)O)NC(=O)[C@H](Cc1ccc(O)cc1)NC(=O)[C@H](Cc1ccccc1)NC(=O)CNC(=O)[C@H](C(C)C)NC(=O)[C@H]([C@@H](C)CC)NC3=O)C(=O)N1CCC[C@H]1C(=O)NCC(=O)N[C@@H](Cc1ccc(O)cc1)C(=O)N[C@@H](CCCNC(=N)N)C(=O)N2 (stereo not given in full) ([ξpGlu]GCAGPGEECIVGFYDCCPGYRCYPGDPGGICY-OH; disulfide 3-18, 10-23, 17-32) the Activity [1] was “Non-toxic”, the Activity (RAW264.7 [3]) was “Non-toxic” and the Activity [4] was “Non-toxic”. The Activity (RAW264.7 [5]) was “Non-toxic”.
With CC(C)C[C@@H]1NC(=O)CNC(=O)[C@H](CC(N)=O)NC(=O)[C@H](CCCNC(=N)N)NC(=O)[C@H]([C@@H](C)O)NC(=O)[C@@H]2CSSC[C@@H]3NC(=O)[C@H]([C@@H](C)O)NC(=O)CNC(=O)CNC(=O)[C@H](C(C)C)NC(=O)[C@@H]4CSSC[C@H](NC(=O)[C@H]([C@@H](C)O)NC(=O)[C@H](CSSC[C@H](NC(=O)[C@H](C(C)C)NC(=O)[C@@H]5CCCN5C1=O)C(=O)NCC(=O)N[C@@H](CCC(=O)O)C(=O)N[C@@H]([C@@H](C)O)C(=O)N4)NC(=O)CNC(=O)[C@@H]1CCCN1C(=O)[C@H]([C@@H](C)O)NC(=O)[C@H](CC(N)=O)NC3=O)C(=O)N[C@@H](CO)C(=O)N[C@@H](Cc1c[nH]c3ccccc13)C(=O)N1CCC[C@H]1C(=O)N[C@@H](C(C)C)C(=O)N2 the Stability [2] was “Stable” and the hemolysis at 1 h, 50 µM ([4]; red blood cells, read-out: Activity) was 74%.
